For 36 compounds, IC50 results are on record in the supplement of paper PMC3493320.

In the experiment the test system is NCI-H295R. Briefly: IC50 (antiproliferative, ATP content). The following applies: 48 h. Summed up: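 Following overnight culture of adrenocortical carcinoma cells (1500 per well) in 1536-well plates with serum-free ITS-supplemented DMEM, library compounds were pin-transferred at 8 final concentrations from 0.6 nM to 46 µM. Incubation lasted 48 h at 37 °C, 5% CO2, and the CellTiter-Glo signal was read after 20 min at room temperature. Data were fitted with a four-parameter logistic model. Each IC50 came from that fit after normalisation to vehicle and positive-control wells, and compounds without a concentration response were reported as above the top dose.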
Take `CC(C)(C)NCC(O)COc1ccc(NC(=O)NC2CCCCC2)cc1` (stereo unspecified): the 50% inhibitory concentration (IC50) (as a rule, the concentration at which inhibition is half-maximal) is more than 46 µM.
In the case of `Clc1ccccc1Cl` it was more than 46 µM.
As for `CCCCC`, the figure is more than 46 µM.
As for `COCCCC/C(=N\OCCN)c1ccc(C(F)(F)F)cc1`, the figure is more than 46 µM; as for `Cc1ccc(C(C)(C)c2ccc(C)cc2)cc1`, more than 46 µM; as for `Cc1cccn2c(=O)c(-c3nnn[n-]3)cnc12.[K+]`, more than 46 µM.
In turn, `C=CCOC(Cn1ccnc1)c1ccc(Cl)cc1Cl.O=S(=O)(O)O` (stereo unspecified) returned a 50% inhibitory concentration (IC50) of more than 46 µM.
`O=C(Nc1ccc(O)cc1)c1ccccc1O` registered a half-maximal inhibitory concentration (IC50) of more than 46 µM.
In the case of `C[C@@H](O)[C@H](N)C(=O)O` it was more than 46 µM.
As for `N#C/C(=C1\SCC(c2ccccc2Cl)S1)n1ccnc1` (stereo unspecified), the figure is more than 46 µM; as for `Cc1c(Cn2ccnc2)c2ccccc2n1CCC(=O)O`, more than 46 µM.
In the case of `O=C1CN(N=Cc2ccc(-c3ccc([N+](=O)[O-])cc3)o2)C(=O)[N-]1.[Na+]` it was more than 46 µM.
In turn, `C=CC[N@@+]1(C)CC[C@]23c4c5ccc(O)c4O[C@H]2C(=O)CC[C@@]3(O)[C@H]1C5.[I-]` gave a half-inhibitory concentration (IC50) of more than 46 µM.
`OC[C@@H](O)[C@H](O)[C@H](O)[C@@H](O)CO`: the half-maximal inhibitory concentration (IC50) was more than 46 µM.
As for `CC(C)c1cccc(C(C)C)c1O`, the IC50 is more than 46 µM.
As for `NC[C@H](O)c1ccc(O)c(O)c1.O=C(O)C(O)C(O)C(=O)O.O=C(O)C(O)C(O)C(=O)O`, the IC50 was more than 46 µM.
In the case of `CC(=O)Nc1ccc(OCC(O)CNC(C)C)cc1` (stereo unspecified) it was more than 46 µM; in that of `CCC(C)(Oc1ccc(C2(c3ccc(OC(C)(CC)C(=O)O)cc3)CCCCC2)cc1)C(=O)O` (stereo unspecified), more than 46 µM.
In the case of `CCC(C(N)=O)N1CCCC1=O` (stereo unspecified) it was more than 46 µM.
As for `OC(=O)[C@@H](N)C\C2=C\Nc1ccc(O)cc12`, the figure is more than 46 µM.
The compound `COc1ccc2c(c1OC)C(=O)O[C@H]2[C@@H]1c2cc3c(cc2CCN1C)OCO3` showed an IC50 of more than 46 µM.
As for `Nc1nc(N)nc(-c2cc(Cl)ccc2Cl)n1.O=C(O)/C=C\C(=O)O`, the figure is more than 46 µM.
As for `O=C(O)COc1ccccc1`, the figure is more than 46 µM; as for `CNC(=O)c1c(I)c(C(=O)NCC(=O)Nc2c(I)c(C(=O)O)c(I)c(C(=O)NCCO)c2I)c(I)c(N(C)C(C)=O)c1I`, more than 46 µM.
With `O=c1[nH]c(=O)n([C@H]2C[C@H](O)[C@@H](CO)O2)cc1C(F)(F)F`, the 50% inhibitory concentration (IC50) was more than 46 µM.
`CCCCCOC(=O)Nc1nc(=O)n([C@@H]2O[C@H](C)[C@@H](O)[C@H]2O)cc1F`: the IC50 was more than 46 µM.
In the case of `CCN(CC)C(C)C(=O)c1ccccc1.Cl` (stereo unspecified) it was more than 46 µM; in that of `O=S(=O)(O)O.Oc1ccc(C(O)CNCCCCCCNCC(O)c2ccc(O)c(O)c2)cc1O` (stereo unspecified), more than 46 µM.
In the case of `NS(=O)(=O)c1cc(C(=O)O)cc(N2CCCC2)c1Oc1ccccc1` it was more than 46 µM; in that of `Cl.NCCNC(=O)c1ccc(Cl)cn1`, more than 46 µM.
In the case of `F[C@]1([C@](C[C@@H]4F)([H])[C@@]3([H])[C@]([C@@]([C@H](C)C3)(O)[C@@](CO)=O)(C)C[C@@H]1O)[C@](C=C2Cl)(C)C4=CC2=O.O` it was more than 46 µM; in that of `CC(=O)[C@H]2CC[C@H]3[C@@H]4\C=C/C1=C/C(=O)CC[C@@]1(C)[C@@H]4CC[C@]23C`, more than 46 µM.
Take `CC(C)(C)c1ccc(C(O)CCCN2CCC(C(O)(c3ccccc3)c3ccccc3)CC2)cc1` (stereo unspecified): the IC50 is more than 46 µM.
Regarding `COc1ccc2c3c1O[C@H]1C(=O)CC[C@H]4[C@@H](C2)N(C)CC[C@]314.COc1ccc2c3c1O[C@H]1C(=O)CC[C@H]4[C@@H](C2)N(C)CC[C@]314.O=P(O)(O)O.O=P(O)(O)O.O=P(O)(O)O`, the IC50 was more than 46 µM.
In turn, `CC(Cc1ccccc1)(NC(=O)CN)c1ccccc1.Cl` (stereo unspecified) registered a concentration for half-maximal inhibition (IC50) of more than 46 µM.
In turn, `CCCCCCCCCC(=O)O[C@H]2CC[C@H]3[C@@H]4CC\C1=C\C(=O)CC[C@@H]1[C@H]4CC[C@]23C` showed an IC50 of more than 46 µM.
